Source: PubChem BioAssay (NCI)
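Here, GI50 denotes the concentration required for 50% inhibition of growth. Definition used: TGI = concentration required for complete inhibition of growth.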

Tests used:
Experiment in all cases: DTP human tumour cell line panel, 384-well format
[1] = test system: LOX IMVI melanoma
[2] = test system: SK-OV-3 ovarian
[3] = test system: HOP-92 NSCLC
[4] = test system: SK-MEL-28 melanoma
[5] = test system: U251 glioblastoma
[6] = test system: SNB-19 CNS
[7] = test system: SN12C renal
[8] = test system: NCI-H322M lung
[9] = test system: MDA-MB-231 breast
[10] = test system: T-47D breast
[11] = test system: SR leukemia
[12] = test system: TK-10 renal
[13] = test system: A498 renal
[14] = test system: ACHN renal
[15] = test system: SF-268 CNS
[16] = test system: OVCAR-3 ovarian
[17] = test system: MCF7 breast
[18] = test system: UO-31 renal
[19] = test system: HT29 colon
[20] = test system: SK-MEL-5 melanoma
[21] = test system: K-562 leukemia
[22] = test system: SNB-75 CNS
[23] = test system: EKVX NSCLC
[24] = test system: SK-MEL-2 melanoma
[25] = test system: CCRF-CEM leukemia
[26] = test system: MDA-MB-468 breast
[27] = test system: OVCAR-4 ovarian
[28] = test system: SF-295 CNS
[29] = test system: 786-0 renal
[30] = test system: HOP-62 NSCLC
[31] = test system: NCI-H226 lung
[32] = test system: HL-60(TB) leukemia
[33] = test system: RXF 393 renal
[34] = test system: MOLT-4 leukemia
[35] = test system: HCT-15 colon
[36] = test system: HS 578T breast
[37] = test system: MDA-MB-435 melanoma
[38] = test system: KM12 colon
[39] = test system: NCI/ADR-RES ovarian
[40] = test system: OVCAR-5 ovarian
[41] = test system: CAKI-1 renal
[42] = test system: OVCAR-8 ovarian
[43] = test system: HCC-2998 colon
[44] = test system: HCT-116 colon
[45] = test system: NCI-H522 lung
[46] = test system: UACC-257 melanoma
[47] = test system: M14 melanoma

In the case of `CN1C(=O)[C@@H](CC2CCCC2)N(C2CCCC2)c2nc(Nc3cc(Cl)c(O)c(Cl)c3)ncc21`, the GI50 [1] is reported as 6.14 µM, the TGI [1] is reported as 19.5 µM and the GI50 [2] is reported as 6.01 µM. For the same compound, the TGI [2] was 45.2 µM, the GI50 [3] was 6.46 µM and the TGI [3] was 42 µM. For the same compound, the GI50 [4] was 4.79 µM, the TGI [4] was > 100 µM and the GI50 [5] was 5.66 µM. The TGI [5] was 19.1 µM, the GI50 [6] was 4.67 µM and the TGI [6] was > 100 µM. The GI50 [7] was 10.4 µM, the TGI [7] was > 100 µM and the GI50 [8] was 15.4 µM. For the same compound, the TGI [8] was 97.8 µM, the GI50 [9] was 7.5 µM and the TGI [9] was > 100 µM. The GI50 [10] was 2.38 µM, the TGI [10] was > 100 µM and the GI50 [11] was 2.87 µM. For the same compound, the TGI [11] was 8.95 µM, the GI50 [12] was 3.69 µM and the TGI [12] was 20.1 µM. The GI50 [13] was 10.1 µM, the TGI [13] was 27.1 µM and the GI50 [14] was 6.38 µM. For the same compound, the TGI [14] was 26.2 µM, the GI50 [15] was 11.2 µM and the TGI [15] was 70 µM. It also gave a GI50 [16] of 4.55 µM, a TGI [16] of 15.8 µM and a GI50 [17] of 3.16 µM. The TGI [17] was 23.1 µM, the GI50 [18] was 4.75 µM and the TGI [18] was 23.2 µM. The GI50 [19] was 35.6 µM, the TGI [19] was > 100 µM and the GI50 [20] was 4.57 µM. The TGI [20] was 16.4 µM, the GI50 [21] was 3.57 µM and the TGI [21] was 15 µM. The GI50 [22] was 6.35 µM, the TGI [22] was 49 µM and the GI50 [23] was 3.55 µM. It also gave a TGI [23] of 20 µM, a GI50 [24] of 13.5 µM and a TGI [24] of 28 µM. It also gave a GI50 [25] of 3.05 µM, a TGI [25] of 8.14 µM and a GI50 [26] of 2.89 µM. The TGI [26] was 8.38 µM, the GI50 [27] was 5.33 µM and the TGI [27] was 37.1 µM. For the same compound, the GI50 [28] was 13 µM, the TGI [28] was 29.3 µM and the GI50 [29] was 8.07 µM. For the same compound, the TGI [29] was 24.3 µM, the GI50 [30] was 12.1 µM and the TGI [30] was 33.1 µM. It also gave a GI50 [31] of 11.5 µM, a TGI [31] of 31.7 µM and a GI50 [32] of 1.75 µM. It also gave a TGI [32] of 3.17 µM, a GI50 [33] of 2.45 µM and a TGI [33] of 7.68 µM. The GI50 [34] was 1.67 µM, the TGI [34] was 3.06 µM and the GI50 [35] was 4.62 µM. It also gave a TGI [35] of 21 µM, a GI50 [36] of 3.04 µM and a TGI [36] of 23.4 µM. The GI50 [37] was 7.55 µM, the TGI [37] was > 100 µM and the GI50 [38] was 4.9 µM. The TGI [38] was 24.6 µM, the GI50 [39] was 3.46 µM and the TGI [39] was 26.7 µM. The GI50 [40] was 14.8 µM, the TGI [40] was > 100 µM and the GI50 [41] was 3.95 µM. The TGI [41] was 22.2 µM, the GI50 [42] was 4.99 µM and the TGI [42] was 60.5 µM. The GI50 [43] was 5.31 µM, the TGI [43] was 20.5 µM and the GI50 [44] was 3.9 µM. It also gave a TGI [44] of 13.7 µM, a GI50 [45] of 2.6 µM and a TGI [45] of 8.91 µM. For the same compound, the GI50 [46] was 6 µM, the TGI [46] was 25.4 µM and the GI50 [47] was 6.27 µM. The TGI [47] was 97.7 µM.

In the case of `Cc1c(Br)c(Br)c2c3c1nc(N1CCNCC1)n3CCC2`, the GI50 [1] is reported as 1.49 µM, the TGI [1] is reported as 2.84 µM and the GI50 [2] is reported as 1.36 µM. For the same compound, the TGI [2] was 2.74 µM, the GI50 [3] was 1.75 µM and the TGI [3] was 3.3 µM. For the same compound, the GI50 [4] was 1.59 µM, the TGI [4] was 2.95 µM and the GI50 [5] was 1.66 µM. For the same compound, the TGI [5] was 3.04 µM, the GI50 [6] was 1.75 µM and the TGI [6] was 3.24 µM. It also gave a GI50 [7] of 1.64 µM, a TGI [7] of 3.02 µM and a GI50 [8] of 1.73 µM. It also gave a TGI [8] of 3.42 µM, a GI50 [9] of 1.6 µM and a TGI [9] of 3.24 µM. The GI50 [10] was 1.52 µM, the TGI [10] was 2.86 µM and the GI50 [11] was 1.03 µM. For the same compound, the TGI [11] was 2.24 µM, the GI50 [12] was 1.51 µM and the TGI [12] was 2.88 µM. It also gave a GI50 [13] of 0.792 µM, a TGI [13] of 2.07 µM and a GI50 [14] of 1.37 µM. For the same compound, the TGI [14] was 2.73 µM, the GI50 [15] was 1.33 µM and the TGI [15] was 2.65 µM. It also gave a GI50 [16] of 1.42 µM, a TGI [16] of 2.74 µM and a GI50 [17] of 1.17 µM. The TGI [17] was 2.42 µM, the GI50 [18] was 1.45 µM and the TGI [18] was 2.78 µM. For the same compound, the GI50 [19] was 1.62 µM, the TGI [19] was 3.06 µM and the GI50 [20] was 1.25 µM. For the same compound, the TGI [20] was 2.51 µM, the GI50 [21] was 1.52 µM and the TGI [21] was 2.89 µM. For the same compound, the GI50 [22] was 1.97 µM, the TGI [22] was 3.4 µM and the GI50 [23] was 1.57 µM. The TGI [23] was 2.95 µM, the GI50 [24] was 1.38 µM and the TGI [24] was 2.68 µM. The GI50 [25] was 0.885 µM, the TGI [25] was 2.17 µM and the GI50 [26] was 1.15 µM. The TGI [26] was 2.37 µM, the GI50 [27] was 1.77 µM and the TGI [27] was 3.51 µM. The GI50 [28] was 1.69 µM, the TGI [28] was 3.1 µM and the GI50 [29] was 1.55 µM. The TGI [29] was 2.9 µM, the GI50 [30] was 1.72 µM and the TGI [30] was 3.57 µM. It also gave a GI50 [31] of 1.2 µM, a TGI [31] of 2.62 µM and a GI50 [32] of 0.49 µM. It also gave a TGI [32] of 0.998 µM, a GI50 [33] of 1.39 µM and a TGI [33] of 2.68 µM. The GI50 [34] was 1.23 µM, the TGI [34] was 2.48 µM and the GI50 [35] was 1.6 µM. The TGI [35] was 2.98 µM, the GI50 [36] was 1.87 µM and the TGI [36] was 3.28 µM. The GI50 [37] was 1.85 µM, the TGI [37] was 3.27 µM and the GI50 [38] was 1.41 µM. For the same compound, the TGI [38] was 2.73 µM, the GI50 [39] was 1.68 µM and the TGI [39] was 3.27 µM. It also gave a GI50 [40] of 1.74 µM, a TGI [40] of 3.24 µM and a GI50 [41] of 1.59 µM. The TGI [41] was 2.99 µM, the GI50 [42] was 1.47 µM and the TGI [42] was 2.85 µM. For the same compound, the GI50 [43] was 0.976 µM, the TGI [43] was 2.23 µM and the GI50 [44] was 1.37 µM. For the same compound, the TGI [44] was 2.7 µM, the GI50 [45] was 0.347 µM and the TGI [45] was 1.8 µM. The GI50 [46] was 1.62 µM, the TGI [46] was 2.99 µM and the GI50 [47] was 1.53 µM. The TGI [47] was 2.88 µM.
